Test [1] has as its target μ-opioid receptor (Homo sapiens, UniProt P35372). Put plainly: μ-opioid receptor [35S]GTPγS functional assay. In kind it is biochemical. The text has this: Measures of a compound's activity at a given receptor are given by GTP Emax and GTP EC50. GTP Emax (%) is the maximal effect elicited by a compound relative to the effect elicited by a standard, known agonist compound. GTP EC50 is the concentration of a compound providing 50% of the maximal response for that compound at a given receptor. For MOR, the μ GTP Emax (%) is the maximal effect elicited by a compound relative to the effect elicited by the standard MOR agonist [D-Ala^2, N-methyl-Phe^4 Gly-ol^5]-enkephalin (a/k/a DAMGO). Generally, the μ GTP Emax (%) value measures the efficacy of a compound to treat or prevent pain or diarrhea.
μ-Opioid Receptor Functional Assay Procedures:
[^35S]GTPγS functional assays were conducted using freshly thawed μ-receptor membranes. Assay reactions were prepared by sequentially adding the following reagents to binding buffer (100 mM NaCl, 10 mM MgCl2, 20 mM HEPES, pH 7.4) on ice (final concentrations indicated): membrane protein (0.026 mg/mL), saponin ([…]), GDP ([…]) and [^35S]GTPγS (0.20 nM; NEN). […] BetaScint scintillation cocktail (Wallac, Turku, Finland) was added (50 μl/well) and plates were counted using a Packard Top-Count for 1 min/well. Data were analyzed using the sigmoidal dose-response curve fitting functions in GraphPad PRISM v. […]
Background: Binding of GTPγS marks nucleotide exchange on a G protein.

Test [2] deals with T1, kappa opioid receptor (Homo sapiens, UniProt P41145).
T1 construct: expressed in transfected cells; host or cells: HEK-293
Put plainly: κ-opioid receptor [35S]GTPγS functional assay. In kind it is biochemical. The conditions noted are these: relative to U69,593; read-out: GTPγS κ Emax [mean ± SEM]. As to the method: Similarly for KOR, the κ GTP Emax (%) is the maximal effect elicited by a compound relative to the effect elicited by the known κ-agonist, U69,593.
κ-Opioid Receptor Functional Assay Procedures:
Functional [^35S]GTPγS binding assays were conducted as follows. Kappa opioid receptor membrane solution was prepared by sequentially adding final concentrations of 0.026 μg/μl kappa membrane protein (in-house), 10 μg/mL saponin, 3 μM GDP and 0.20 nM [^35S]GTPγS to binding buffer (100 mM NaCl, 10 mM MgCl2, 20 mM HEPES, pH 7.4) on ice. The prepared membrane solution (190 μl/well) was transferred to 96-shallow well polypropylene plates containing 10 μl of 20× concentrated stock solutions of agonist prepared in DMSO. Plates were incubated for 30 min at a temperature of about 25° C. with shaking. Reactions were terminated by rapid filtration onto 96-well Unifilter GF/B filter plates (Packard) using a 96-well tissue harvester (Packard) and followed by three filtration washes with 200 μl ice-cold […] (10 mM NaH2PO4, 10 mM Na2HPO4, pH 7.4). Filter plates were subsequently dried at 50° C. for 2-3 hours. Fifty μl/well scintillation cocktail (MicroScint20, Packard) was added and plates were counted in a Packard Top-Count for 1 min/well.

For test [3], the system named is adult male CD-1 mice. Put plainly: In vivo itch response assay (Compound 48/80-induced scratching). The settings on record: for Effect on scratch response: given 20 min before pruritogen Compound 48/80. The procedure: In Vivo Model and Procedures:
An in vivo model was devised and implemented to evaluate the antipruritic activity of compounds in mice. Compound 48/80 (Sigma Chemical), a known pruritogen in mice, was mixed in a 0.9% saline vehicle and administered to various cohorts of adult male CD-1 mice by s.c. injection at the nape of the neck at dosage levels of 12.5, 25, 50 and 100 μg. The saline vehicle alone was used as a control. The mice were monitored visually and scratching bouts were counted over the ensuing 30 minutes.
Next, test benzomorphan Compound #1 (see Examples 1 and 2 above) was given in various doses (Table 3 below) in the rear flank 20 minutes prior to pruritogen injection in the same manner as the Nalfurafine.

Molecules are shown by their SMILES. Where a name gives a salt, the structure may show the parent alone. Marks after values point to notes of the source that are not given here. Some results are limits rather than exact numbers.

μ-opioid receptor, sequence (P35372 whole entry, species assumed): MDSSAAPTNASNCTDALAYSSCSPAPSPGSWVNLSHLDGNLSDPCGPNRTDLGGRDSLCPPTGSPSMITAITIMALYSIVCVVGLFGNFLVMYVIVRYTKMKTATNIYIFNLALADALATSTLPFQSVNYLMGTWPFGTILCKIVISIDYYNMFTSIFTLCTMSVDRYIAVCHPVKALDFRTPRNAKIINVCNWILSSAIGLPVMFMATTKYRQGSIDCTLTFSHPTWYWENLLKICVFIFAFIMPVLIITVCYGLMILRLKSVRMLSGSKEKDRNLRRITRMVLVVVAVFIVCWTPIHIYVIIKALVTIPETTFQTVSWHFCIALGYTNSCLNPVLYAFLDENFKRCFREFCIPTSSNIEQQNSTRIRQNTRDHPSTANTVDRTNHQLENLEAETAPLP
T1 sequence (P41145 whole entry): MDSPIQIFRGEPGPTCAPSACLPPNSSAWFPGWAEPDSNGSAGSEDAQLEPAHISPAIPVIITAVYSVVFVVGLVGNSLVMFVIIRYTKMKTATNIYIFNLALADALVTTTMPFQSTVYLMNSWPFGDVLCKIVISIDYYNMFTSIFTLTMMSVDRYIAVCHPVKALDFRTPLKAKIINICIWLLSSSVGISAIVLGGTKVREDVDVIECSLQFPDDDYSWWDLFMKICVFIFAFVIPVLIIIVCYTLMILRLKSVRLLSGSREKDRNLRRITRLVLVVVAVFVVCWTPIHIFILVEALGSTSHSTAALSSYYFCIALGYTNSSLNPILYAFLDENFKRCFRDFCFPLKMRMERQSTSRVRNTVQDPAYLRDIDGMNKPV

As usually defined, the EC50 is the concentration giving half of the maximal effect. Low readings indicate greater potency, high ones weaker potency. In general, Emax refers to the size of the effect at its maximum, as opposed to the concentration needed. As to `C=CC[N+]1(C)CCC2(C)c3cc(O)ccc3C[C@@H]1[C@@H]2C.[I-]` (stereo partly drawn) [Compound #1], in test [1], the EC50 is > 20 µM. Moreover, the Emax in test [1] (relative to DAMGO, read-out: GTPγS μ Emax [mean ± SEM]) was 3.67 ± 1.33%; in test [2], 27.3 ± 3.38%. Besides, the entries for the “Total # Scratching Bouts in 30 mins (mean ± S.E.M.)” value in test [3] (3 mg/kg in rear flank 20 min before Compound 48/80 (0.5 mg/kg)), in test [3] (10 mg/kg in rear flank 20 min before Compound 48/80 (0.5 mg/kg)) and in test [3] (30 mg/kg in rear flank 20 min before Compound 48/80 (0.5 mg/kg)) were 155.8 ± 13.73^a, 129.4 ± 16.18^b and 70.8 ± 19.74^c, respectively. In test [3], the “Effect on scratch response” value was “alleviated pruritus by reducing the mean number of scratching bouts”.
`CN(C(=O)/C=C/c1ccoc1)[C@@H]1CC[C@@]2(O)[C@H]3Cc4ccc(O)c5c4[C@@]2(CCN3CC2CC2)[C@H]1O5` [Nalfurafine, Nalfurafine HCl, reference compound]: the “Total # Scratching Bouts in 30 mins (mean ± S.E.M.)” value in test [3] (0.04 mg/kg s.c. 20 min before Compound 48/80 (0.5 mg/kg)) is recorded as 25.6 ± 7.92^d. Moreover, the “Effect on scratch response” value in test [3] is recorded as “dose dependent reduction in scratch response”.

For the origin of these results see patent US20140066475A1, “Method For Treating Pruritus” (Euro-Celtique S.A., priority 2012, published 2014).
